{"source": "patent US20030232419A1", "about": "“Molecules interacting with CASL (MICAL) polynucleotides, polypeptides, and methods of using the same” (priority 2002, published 2003)", "key": {"[1]": {"test_system": "Sema3A-mediated axonal repulsion of NGF-dependent DRG axons", "experiment": "in vitro rat DRG growth cone repulsion assay using Sema 3A-secreting 293 cells", "type": "cell-based", "settings": "for attenuation of Sema 3A mediated axonal repulsion: inhibitors of other redox enzymes at concentrations previously shown to be effective in cell culture conditions", "protocol": "FIG. 4A provides a schematic diagram of the rat D E14/15 Rat DRG explants were co-cultured with 293 cells expressing Sema 3A and grown for 48 hours in the presence of an inhibitor or vehicle. Axonal outgrowth was determined by measuring proximal (P) and distal (D) axon lengths.\nDRG repulsion assays were performed as described (Messersmith et al., 1995).\n(§1) Scoring was done by splitting explants into quadrants and scoring all growth cones as either collapsed or not-collapsed."}, "[2]": {"target": "matrix metalloproteinase MMP-9 (Homo sapiens, UniProt P14780)", "sequence (P14780 94-707)": "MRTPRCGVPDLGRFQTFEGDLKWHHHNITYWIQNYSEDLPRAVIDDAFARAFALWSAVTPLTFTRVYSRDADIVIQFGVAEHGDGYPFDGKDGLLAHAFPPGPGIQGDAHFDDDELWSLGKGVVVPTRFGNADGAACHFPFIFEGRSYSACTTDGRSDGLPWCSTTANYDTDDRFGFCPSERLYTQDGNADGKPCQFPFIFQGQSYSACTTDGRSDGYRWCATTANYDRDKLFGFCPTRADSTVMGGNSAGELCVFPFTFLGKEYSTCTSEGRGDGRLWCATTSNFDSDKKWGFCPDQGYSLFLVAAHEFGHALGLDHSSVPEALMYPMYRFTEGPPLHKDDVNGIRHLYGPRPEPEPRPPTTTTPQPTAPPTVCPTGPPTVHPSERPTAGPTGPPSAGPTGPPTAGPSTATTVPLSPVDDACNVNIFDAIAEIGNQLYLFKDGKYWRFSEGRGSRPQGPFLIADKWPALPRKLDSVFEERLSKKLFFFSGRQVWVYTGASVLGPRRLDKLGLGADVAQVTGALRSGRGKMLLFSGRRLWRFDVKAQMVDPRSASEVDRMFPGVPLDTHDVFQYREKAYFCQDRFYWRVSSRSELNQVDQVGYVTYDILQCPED", "settings": "similar concentrations of EGCG; cited from earlier work"}, "phenol sulfotransferase": {"test_system": "phenol sulfotransferase", "settings": "similar concentrations of EGCG; cited from earlier work"}, "telomerase": {"target": "telomerase (Homo sapiens, UniProt O14746)", "sequence (O14746 whole entry)": "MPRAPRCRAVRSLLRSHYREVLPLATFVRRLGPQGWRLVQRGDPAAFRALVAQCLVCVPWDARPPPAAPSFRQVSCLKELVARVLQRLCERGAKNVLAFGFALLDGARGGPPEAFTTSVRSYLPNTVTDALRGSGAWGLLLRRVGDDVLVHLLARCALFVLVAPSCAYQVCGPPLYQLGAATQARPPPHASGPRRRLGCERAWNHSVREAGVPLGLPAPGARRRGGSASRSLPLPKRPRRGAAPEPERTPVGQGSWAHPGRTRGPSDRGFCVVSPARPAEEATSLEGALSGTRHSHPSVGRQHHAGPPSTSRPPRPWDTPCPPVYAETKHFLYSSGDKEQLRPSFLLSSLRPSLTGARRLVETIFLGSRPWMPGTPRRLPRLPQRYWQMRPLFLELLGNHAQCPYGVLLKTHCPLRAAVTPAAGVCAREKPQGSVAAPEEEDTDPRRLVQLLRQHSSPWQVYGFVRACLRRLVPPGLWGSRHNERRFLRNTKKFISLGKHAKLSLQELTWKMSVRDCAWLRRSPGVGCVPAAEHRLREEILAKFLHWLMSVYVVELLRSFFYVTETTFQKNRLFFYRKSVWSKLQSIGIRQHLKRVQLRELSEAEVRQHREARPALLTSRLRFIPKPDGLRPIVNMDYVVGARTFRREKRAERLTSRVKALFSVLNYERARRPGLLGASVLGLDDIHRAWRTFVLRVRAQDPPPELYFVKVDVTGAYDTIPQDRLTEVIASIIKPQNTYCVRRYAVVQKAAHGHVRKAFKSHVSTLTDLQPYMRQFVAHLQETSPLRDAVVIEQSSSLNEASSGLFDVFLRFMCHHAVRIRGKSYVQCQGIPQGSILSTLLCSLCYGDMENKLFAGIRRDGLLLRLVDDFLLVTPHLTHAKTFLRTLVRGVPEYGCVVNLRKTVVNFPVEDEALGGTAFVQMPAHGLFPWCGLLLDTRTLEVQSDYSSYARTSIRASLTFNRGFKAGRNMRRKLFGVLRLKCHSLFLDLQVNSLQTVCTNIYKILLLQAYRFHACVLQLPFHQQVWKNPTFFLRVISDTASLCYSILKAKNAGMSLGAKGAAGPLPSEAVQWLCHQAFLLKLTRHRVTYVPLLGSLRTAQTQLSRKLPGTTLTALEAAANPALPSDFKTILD", "settings": "similar concentrations of EGCG; cited from earlier work"}, "[3]": {"target": "p-hydroxybenzoate hydroxylase (pHBH) (Pseudomonas aeruginosa, UniProt P20586)", "sequence (P20586 whole entry)": "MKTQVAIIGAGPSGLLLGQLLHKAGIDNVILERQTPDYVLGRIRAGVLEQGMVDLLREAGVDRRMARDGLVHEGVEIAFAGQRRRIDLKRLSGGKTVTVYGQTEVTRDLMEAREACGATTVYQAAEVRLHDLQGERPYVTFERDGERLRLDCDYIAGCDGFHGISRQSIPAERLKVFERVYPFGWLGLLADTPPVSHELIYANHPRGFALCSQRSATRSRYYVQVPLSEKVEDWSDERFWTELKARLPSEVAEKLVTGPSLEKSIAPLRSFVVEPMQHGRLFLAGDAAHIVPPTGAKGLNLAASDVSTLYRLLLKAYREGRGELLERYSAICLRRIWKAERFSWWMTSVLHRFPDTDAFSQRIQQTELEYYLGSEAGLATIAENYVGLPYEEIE", "settings": "cited from earlier work"}, "steroid 5a-reductase": {"test_system": "steroid 5a-reductase", "settings": "similar concentrations of EGCG; cited from earlier work"}, "[4]": {"test_system": "Sema3A-mediated growth cone collapse in NGF-dependent DRG neurons", "experiment": "DRG growth cone collapse assay with AP-Sema3A", "type": "cell-based, rat", "settings": "25 mM EGCG, 3 hours in EGCG prior to 1 hour 1 nM AP-Sema3A", "source_text": "FIG. 4C provides a graph that quantitates the effects of oxidation/reduction enzyme inhibitors on Sema 3A repulsion scored as the ratio of the axon lengths on the proximal and distal sides of the explant (P/D ratio), and on Sema3A-mediated growth cone collapse indicated as % collapsed growth cones (gray). In repulsion assays, outgrowth of DRG axons on the side distal to the 293 cells appeared normal. […] For Rote, n=4, however only 4 out of 12 explants survived. (**=p<0.0001; *=p<0.001; paired t-test). Scale bar=[…].\nas §1"}, "[5]": {"target": "T1, NADPH-cytochrome P450 reductase (Homo sapiens, UniProt P16435)", "T1 sequence (P16435 1-677)": "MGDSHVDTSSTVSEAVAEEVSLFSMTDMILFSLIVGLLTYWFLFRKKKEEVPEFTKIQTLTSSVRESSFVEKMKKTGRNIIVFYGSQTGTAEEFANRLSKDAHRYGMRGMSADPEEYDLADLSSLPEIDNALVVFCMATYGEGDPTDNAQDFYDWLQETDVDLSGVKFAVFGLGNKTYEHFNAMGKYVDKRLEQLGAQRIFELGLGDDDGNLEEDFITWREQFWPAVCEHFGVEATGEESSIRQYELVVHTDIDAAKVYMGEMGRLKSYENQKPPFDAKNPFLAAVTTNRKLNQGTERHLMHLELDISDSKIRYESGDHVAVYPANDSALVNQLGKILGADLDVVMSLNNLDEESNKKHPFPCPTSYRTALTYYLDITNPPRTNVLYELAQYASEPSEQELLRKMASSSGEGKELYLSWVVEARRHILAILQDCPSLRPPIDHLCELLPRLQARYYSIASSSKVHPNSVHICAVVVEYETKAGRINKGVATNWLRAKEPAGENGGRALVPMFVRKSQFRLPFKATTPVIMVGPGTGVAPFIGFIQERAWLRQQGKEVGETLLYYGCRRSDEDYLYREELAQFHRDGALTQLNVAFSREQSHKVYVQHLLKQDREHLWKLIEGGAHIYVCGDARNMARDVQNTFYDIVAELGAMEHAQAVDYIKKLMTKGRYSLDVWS", "settings": "similar concentrations of EGCG; cited from earlier work"}, "[6]": {"target": "T2, Drosophila MICAL (endogenous protein in embryo lysates) (Drosophila, UniProt Q86BA1 1-4723)", "T2 construct": "also called \"large\" MICAL isoform; long isoform", "experiment": "co-immunoprecipitation from embryo lysates with MICAL-CT antibodies, Western blot"}}}
{"molecule": "C=C(C)[C@H]1Cc2c(ccc3c2O[C@@H]2COc4cc(OC)c(OC)cc4[C@@H]2C3=O)O1", "note": "[rotenone]", "values": [{"measurement": "attenuation of Sema 3A mediated axonal repulsion", "setting": "[1]", "result": "No attenuation"}, {"measurement": "explants survived", "setting": "[1]; repulsion assay, n=4", "result": "4 out of 12"}]}
{"molecule": "Oc1ncnc2[nH]ncc12", "note": "[allopurinol]", "values": [{"measurement": "attenuation of Sema 3A mediated axonal repulsion", "setting": "[1]", "result": "No attenuation"}]}
{"molecule": "(−)-epigallocatechin gallate [EGCG]", "values": [{"measurement": "inhibition of MMP-9", "setting": "[2]", "result": "inhibit"}, {"measurement": "inhibition of phenol sulfotransferase", "setting": "phenol sulfotransferase", "result": "inhibit"}, {"measurement": "inhibition of telomerase", "setting": "telomerase", "result": "inhibit"}, {"measurement": "inhibition of p-hydroxybenzoate hydroxylase (pHBH)", "setting": "[3]", "result": "potent and selective inhibitors"}, {"measurement": "inhibition of steroid 5a-reductase", "setting": "steroid 5a-reductase", "result": "inhibit"}, {"measurement": "Sema3A-mediated growth cone collapse", "setting": "[4]", "result": "dramatically abrogates"}, {"measurement": "inhibition of NADPH-cytochrome P450 reductase", "setting": "[5]", "result": "inhibit"}, {"measurement": "Sema3A repulsion", "setting": "[1]; 25 mM EGCG added to the growth media, E14/15 rat DRG explants co-cultured with Sema 3A 293 cells for 48 hours", "result": "completely neutralized"}]}
{"molecule": "Unc5, Drosophila (receptor, UniProt Q95TU8 31-1072, looked up, Specificity control in the co-immunoprecipitation) ELPQLDYGSLSASLEEDAIDPLTAMAPFANSLVTEESAQHKNNAELLGNSSEDENVRPQQGSSSSGLGSSGAAGGSGILLEEFNSGKLSPGEASNTLPIFLIEPESVFVVKNRPAVLKCKASHSLQVIFKCSGSSQPPPSTHETHVDPHTGVNMEEVTATIHRDLVDEFFGDGPFKCECHAWSSRGVVKSQAATVHIAYIRKSFNQSPTSLRLELGSRAELRCEPPGGFPEPKLTWHKNNAVITADSEPGITVSAGTLIFRQVALQHMANYSCSAENIAGRRVSDSAVLIVYVNGGWSTWSPWRECKCAGKPSQGRKRSRTCNNPMPLNGGAQCPGPQIQKSADCAACPEDTQIVSPDGFDISSSKRMARWSAWSDWSICSAECIQVRRRKCLTQGQTQISSEAEEAGDLLLGAPGVGMAALIAAAGVGAVGSPSEATGSSSDIIPGYGKSLCAGKDIQTAECRGEQCQIGKDDFDWTLYLGLAFITAVCFAFGTALICCARRGIRTNPHYNMARSVMDADYMPGVVEKKEMRMHIEASNMGYDYVNPGHRYLPGEHIMGMGIGCGGVTEHHYDVPNLSANYTNPIDHLSVDYLSETGESSTADTSNSTFDMNGKLSILNASKSSTYEMLGSAGGQLRLYGGELLLFVPEHAIGKHVKKHVSLLLLSDECSRVSCATESSILCSSVVHSAPRNYSFVKPVILKIPHCLVAPEQWHVHIYHADSEHDELSVNWRRAVSVGEETINTPMFVQLEATHVFIMTEQLGHFTVVAEPRIQQPSIKMKLLAFSQHTPPSNANCSLRIYVVKDFPNSRDICANVEAKLGGSFLGESQVFAFTLNSRNLNIRVRSADVEAAAPYEHAIPYQHILSNNSILHCEFSLRRQDQNSLCVDFGQGSEDDYYTFNIPAHSMSGSAEELASTTNTTISIDRQGNYVNESCVMDFVQLPHATKRLICGALDPPRADERDWRLLAKKLNTDRYIAYFATKASPTEQILNLWECRANSSPGSSSNSVSHTIMALLLTLKEMGRQDVLDIIVETIGPLWI", "values": [{"measurement": "binding result", "setting": "[6]", "result": "no binding"}]}
